Laboratory results published in US20170000126A1, “METHOD FOR INHIBITING CONIDIAL GERMINATION AND MYCELIAL GROWTH OF FUNGI SYMBIOTICALLY ASSOCIATED WITH BARK BEETLES” (Montana State University - Billings, priority 2015, published 2017).

Experiments:
[1] = test system: Ceratocystiopsis brevicomi; test: disk diffusion assay; format: cell-based; details: C. brevicomi; 50-300 μg per disk
Description: (§1) The second assay is based on the standard “disk diffusion assay” routinely used in antimicrobial testing. Fungi are grown and harvested as for the microplate assay. After diluting 1:10, 150 μl of filtered conidia are spread evenly onto an Malt Extract Agar (MEA) plate. For each plate, 50 μg (0.12 μmole), 100 μg (0.25 μmole), 200 μg (0.50 μmole) and 300 μg (0.75 μmole) of the appropriate molecule (dissolved in DMSO) are spotted onto four separate Whatman Grade AA 6 mm filter disks. A control disk with 20 μl of DMSO only is also prepared. The DMSO is allowed to evaporate completely from each disk at room temperature and then the molecule-impregnated disks are positioned equidistant from each other on a plate. Plates are incubated at room temperature for 3 to 7 days, depending on the fungal species. At the end of the incubation period, the zone of inhibition (i.e., the region around each disk where no growth is visible) is measured from edge to edge of visible growth across and over the center of the disk. Images of the disk assays are obtained using an Epson Perfection V750 Pro desktop scanner.
(§2) Strains of G. clavigera, O. montium and C. brevicomi were obtained from Dr. Diana Six at the University of Montana and maintained on MEA plates (see below) at room temperarture.
(§3) Each small molecule was dissolved in dimethyl sulfoxide (DMSO) as a 10 mM stock and diluted directly into 100 μl of the appropriate YPD medium at 50 μM, 100 μM, 200 μM and 300 μM final concentration (for the microplate assay) or spotted onto Whatman 6 mm filter disks in 50 microgram (μg), 100 μg, 200 μg or 300 μg amounts (for the disk diffusion assay). The control condition (no small molecule) included DMSO to a concentration equivalent to that of the small molecule-containing wells or filter disks.
(§4) In order to identify additional inhibitors of morphogenesis, we employed a core structure search of the Chembridge chemical database and identified 72 compounds of related structure to BH3I-1 (the “core structure” used in the database searches was defined as the benzylidene group attached to a thiazolidine ring). The BH3I-1-related molecules were tested in the disk diffusion assay (200 μg per disk) for anti-fungal activity against all three species of bark beetle-associated fungi. […] These molecules were retested three separate times with 50, 100, 200 and 300 μg per disk (FIGS. 6, 7, 8, 9, 10).

[2] = test system: Ophiostoma montium; test: disk diffusion assay; format: cell-based; details: O. montium; 50-300 μg per disk
Description: as §1, §2, §3, §4

[3] = test system: Grosmannia clavigera; test: disk diffusion assay; format: cell-based; details: G. clavigera; 50-300 μg per disk
Description: as §1, §2, §3, §4

[4] = test system: Ceratocystiopsis brevicomi; test: microplate assay (conidial germination and mycelial growth); format: cell-based; details: C. brevicomi
Description: (§5) In the first assay, referred to as the “microplate assay”, fungi are first grown in liquid medium at 25° C. for 48 hours, and conidia are harvested by filtration through cheese cloth. The conidia are then transferred to the wells of an optical microplate containing (i) growth medium and (ii) varying concentrations of BH3I-1 (typically 0, 50, 100, 200 and 300 μM BH3I-1). The microplates are incubated for up to 120 hrs at 25° C. Germination and mycelial growth are monitored visually with a Nikon TE200 inverted microscope and spectrophotometrically in a Biotek Synergy H4 plate reader. For the spectrophotometric analysis, Optical Density 600 (OD600) readings are taken every six hours over the course of the experiment.
as §2
(§6) YPD medium (1% Yeast Extract, 2% Peptone and 2% Dextrose), a standard fungal growth medium, is used for these experiments. YPD plates included 1.5% agar.
as §3

[5] = test system: Ophiostoma montium; test: as above; format: cell-based; details: O. montium
Description: as §5, §2, §6, §3

[6] = test system: Grosmannia clavigera; test: as above; format: cell-based; details: G. clavigera
Description: as §5, §2, §6, §3

[7] = test system: C. albicans; details: previous finding of the inventors (ref. 5); cited from earlier work

| SMILES | anti-fungal activity (inhibition of conidial germination and mycelial growth) [1] | anti-fungal activity (inhibition of conidial germination and mycelial growth) [2] | anti-fungal activity (inhibition of conidial germination and mycelial growth) [3] | inhibition of conidial germination and mycelial growth [4] | inhibition of conidial germination and mycelial growth [5] | conidial cells failed to germinate ([6]; 100 μM) | mycelial growth of conidia that did germinate ([6]; 100 μM) | time for which growth inhibition was maintained ([6]; 25° C., YPD) [h] | inhibition of morphogenesis (yeast-to-filamentous growth transition) [7] |
| --- | --- | --- | --- | --- | --- | --- | --- | --- | --- |
| CCCC(C(=O)O)N1C(=O)C(=Cc2ccccc2Cl)SC1=S (stereo not drawn) [BH3I-1-69, 2-[5-(2-chlorobenzylidene)-4-oxo-2-thioxo-1,3-thiazolidin-3-yl]pentanoic acid] | inhibit the conidial germination and mycelial growth | inhibit the conidial germination and mycelial growth | inhibit the conidial germination and mycelial growth | – | – | – | – | – | – |
| CCCC(C(=O)O)N1C(=O)C(=Cc2ccc(O)cc2)SC1=S (stereo not drawn) [BH3I-1-66, 2-[5-(4-hydroxybenzylidene)-4-oxo-2-thioxo-1,3-thiazolidin-3-yl]pentanoic acid] | inhibit the conidial germination and mycelial growth | inhibit the conidial germination and mycelial growth | inhibit the conidial germination and mycelial growth | – | – | – | – | – | – |
| CC(C)c1ccc(C=C2SC(=S)N(CC(=O)O)C2=O)cc1 [BH3I-1-68, [5-(4-isopropylbenzylidene)-4-oxo-2-thioxo-1,3-thiazolidin-3-yl]acetic acid] | inhibit the conidial germination and mycelial growth | inhibit the conidial germination and mycelial growth | inhibit the conidial germination and mycelial growth | – | – | – | – | – | – |
| CC(C)C(C(=O)O)N1C(=O)C(=Cc2ccc(Cl)cc2)SC1=S (stereo not drawn) [BH3I-1-12, 2-[5-(4-chlorobenzylidene)-4-oxo-2-thioxo-1,3-thiazolidin-3-yl]-3-methylbutanoic acid] | inhibit the conidial germination and mycelial growth | inhibit the conidial germination and mycelial growth | inhibit the conidial germination and mycelial growth | – | – | – | – | – | – |
| CC(C)C(C(=O)O)N1C(=O)C(=Cc2ccc(Br)cc2)SC1=S (stereo not drawn) [BH3I-1, 5-(p-Bromobenzylidine)-α-isopropyl-4-oxo-2-thioxo-3-thiozolidineacetic acid] | inhibit the conidial germination and mycelial growth | inhibit the conidial germination and mycelial growth | inhibit the conidial germination and mycelial growth | inhibited conidial germination and mycelial growth | inhibited conidial germination and mycelial growth | approximately 80% | mycelia grew for a few hours and then stopped | 120 | inhibits |
